Entries after “also recorded” stand apart in the source; their conditions may differ. Ends that are not written are not given here.
system: antibodies in sera from prostate cancer patients; experiment: Prostate cancer serum test of cell surface protein peptides (Table 3); type: binding, human; design: key: +: positive or negative reactivity between peptides representing modified peptide regions of cancer cell surface protein molecules with antibodies in sera from prostate cancer patients; −: positive or negative reactivity between peptides representing modified peptide regions of cancer cell surface protein molecules with antibodies in sera from prostate cancer patients; conditions: reactivity of peptide with antibodies in sera from prostate cancer patients
Description: Table 3 third column illustrates the positive or negative reactivity between peptides representing modified peptide regions of cancer cell surface protein molecules with antibodies in sera from prostate cancer patients. The presence or absence in prostate cancer cells of the 41 tested molecules is shown as + or − in column four.
Sixth, employing the immunoassays disclosed herein, each biotinylated peptide is screened as an antigen against sera or other relevant biological fluids containing antibodies taken from one of the following groups: cancer patients, patients with benign lesions or inflammatory conditions, and healthy subjects. Peptides can also be screened using tumor-infiltrating lymphocytes or peripheral blood-born lymphocytes from cancer patients. Candidate peptides we consider cancer-specific or cancer-associated depend on whether they fit the following definitions.

Substance	Prostate Cancer Serum Test Result
pdNct: Tested peptide of cell surface protein erbB-4 (PDNCT; also: biotin label at one end)	−
ekNdt: Tested peptide of cell surface protein integrin alpha (v) (EKNDT; not fully specified)	−
perNrt: Tested peptide of cell surface protein erbB-1 (PERNRT; also: biotin label at one end, end not given here)	−
leNht: Tested peptide of cell surface protein integrin alpha 3 (LENHT; also: biotin label at one end)	−
esNrt: Tested peptide of cell surface protein fgfr1 (ESNRT; not fully specified)	−
evNss: Tested peptide of cell surface protein integrin beta 6 (EVNSS; not fully specified)	−
qdNkt: Tested peptide of cell surface protein integrin alpha (v) (QDNKT; also: biotin label at one end, end not given here)	+
deNit: Tested peptide of cell surface protein tgfr beta type II (DENIT; not fully specified)	+

system: serum IgG antibodies from patients with squamous cell carcinoma and from controls; experiment: Immunoassay 2: serum IgG specific for biotinylated peptide antigens, squamous cell carcinoma patients vs persons not known to have cancer; type: binding, human; conditions: 45 squamous cell carcinoma sera
Protocol: Using immunoassay 2 (see Materials and Methods) the following results were obtained.
Immunoassay Method 2: Used to Detect Serum IgA, IgD, IgE, IgG, and IgM Antibodies Specific for Individual Peptide Antigens
NeutrAvidin^a conjugated paper disc, 6 mm.
Serum diluent: 10 mM sodium phosphate, pH 7.20, with 150 MM sodium chloride, and 0.20 mg/mL sodium azide.
NeutrAvidin^a coated white microtiter plate, stored in 10 mM Tris-HCl, pH 7.50, containing 600 mM sodium chloride and 0.2 mg/mL thimerosal.
Plate blocking solution: 10 mM sodium phosphate, pH 7.20, containing 150 mM sodium chloride, 100 mg/mL Triton X-405, and 0.2 mg/mL thimerosal.
Plate wash buffer: 20 mM Tris chloride, pH 7.4, containing 150 mM sodium chloride, 0.5 mg/mL Triton X-405 and 0.2 mg/mL thimerosal.
(§1) Peptide solution: 0.06 μg/mL peptide dissolved in 20 mM Tris chloride, pH 7.4, containing 600 mM sodium chloride, 30 mg/mL polyethylene glycol 4000, 1 mM ethylenediaminetetraacetic acid, 1 mM ethylene glycol-bis(§-aminoethyl ether)N,N,N′,N′-tetraacetic acid, 0.5 mg/mL Triton X405 and 0.2 mg/mL thimerosal.
as §1, with “Control peptide” for “Peptide”, “0.013” for “0.06”, “μg/mL control” for “μg/mL”, “X-405” for “X405”
Conjugate solution: 0.100 μg/mL alkaline phosphatase conjugated polyclonal goat anti human IgG dissolved in 20 mM Tris-HCl, pH 7.40, with 600 mM sodium chloride, 30.0 mg/mL PEG-4000, 3.0 mg/mL BSA, 0.5 mg/mL Triton X-405 and 0.20 mg/mL thimerosal.
Substrate solution: 25.2 μg/mL 4-methylumbelliferyl phosphate dissolved in 180 mM 2-amino-2-methyl-1-propanol, pH 9.50, containing 123 μM magnesium chloride.
Serum preparation: • 1. Add 100 μL serum to 15 NeutrAvidin^a coated paper discs in a suitably sized test tube. • 2. Incubate with gentle mixing at ambient temperature for 16-20 hours. • 3. Add 7.900 mL of serum diluent and mix gently for 30 minutes. • 4. Vortex the tube gently to completely release the serum from the discs. • 5. Remove the treated serum from the discs and transfer it to a suitable storage tube. • 6. Store the treated serum at 4 EC.
Assay procedure: • 1. Two days before assay, aspirate the storage solution from the NeutrAvidin^a coated white microtiter plate and add 200 μL plate blocking solution to each well. • 2. Cover the plate and incubate at ambient temperature for 16-20 hours. • 3. One day before assay. wash the blocked plate three times with plate wash buffer, approximately 275 μL per well per wash. […] Read the plate at 30 and 60 minutes in a fluorescence microtiter plate reader set at 365 nm excitation and 450 nm emission. […]

Substance	sera from squamous cell carcinoma patients with IgG antibody level above control mean background+2.5 SD
aemNgSk: TROP1 peptide with the amino acid sequence aemNgSk (AEMNGSK; not fully specified)	6 of 45
rNvs: EGFR peptide (portion of SEQ ID NO: 67), deglycosylated asparagine N (RNVS; also: deglycosylated asparagine)	2 of 45

same assay, conditions: control population

Substance	sera from persons not known to have cancer: IgG antibody level relative to control mean background+2.5 SD
aemNgSk: TROP1 peptide with the amino acid sequence aemNgSk (AEMNGSK; not fully specified)	one
rNvs: EGFR peptide (portion of SEQ ID NO: 67), deglycosylated asparagine N (RNVS; also: deglycosylated asparagine)	below the mean background+2.5 standard deviations; also recorded: below the mean background plus 4 standard deviations

Source: US6892140B1, “Immunogenic cancer peptides and uses thereof” (Enteron, Inc., priority 2000, dated 2005)
